This test has as its system effect of prednisone on eosinophils, lymphocytes, neutrophils, osteocalcin. Nature of the test: First In Human study Part 3, proof of pharmacological effect (prednisone challenge). It counts as in vivo. The source says:
Linear mixed model of PD parameter estimates from part 3 of the FIE study, including terms for treatment fitted as a fixed effect, subject fitted as a random effect, and baseline concentration values fitted as a covariate. AUEC, area under the effect curve; cfb, change from baseline; CI, confidence interval; Emax, maximum change; ns, not significant.

This is an account of results in patent US12433882B2, “Treatments for amyotrophic lateral sclerosis using dazucorilant” (Corcept Therapeutics Incorporated, priority 2022, dated 2025).

As for `C[C@]12C=CC(=O)C=C1CC[C@@H]1[C@@H]2C(=O)C[C@@]2(C)[C@H]1CC[C@]2(O)C(=O)CO` [Prednisone, prednisone], under “Prednisone (25 mg) alone”, the “EOSINOPHILS AUEC(0-24) cfb (adjusted arithmetic mean)” value was −2.80 109*h/L, the “LYMPHOCYTES AUEC(0-24) cfb (adjusted arithmetic mean)” value is reported as −2.470 109*h/L and the “NEUTROPHILS AUEC(0-24) cfb (adjusted arithmetic mean)” value was 74.7 109*h/L. Further, the “effect of a single dose on eosinophils, lymphocytes, osteocalcin and neutrophils” value (single dose of prednisone) was “decreased eosinophils, lymphocytes, and osteocalcin, and increased neutrophils”.
